The supplement of paper PMC9663587

How the values were obtained:
Taselisib/GDC0032 = compound: Cc1nc(-c2cn3c(n2)-c2ccc(-c4cnn(C(C)(C)C(N)=O)c4)cc2OCC3)n(C(C)C)n1 [Taselisib/GDC0032]
BSJ-01-175 = compound: CN(C)C/C=C/C(=O)Nc1ccc(O[C@@H]2CCC[C@@H](Nc3ncc(Cl)c(-c4c[nH]c5ccccc45)n3)C2)cc1 [BSJ-01-175]
Paclitaxel = compound: CC(=O)O[C@H]1C(=O)[C@@]2(C)[C@H]([C@H](OC(=O)c3ccccc3)[C@]3(O)C[C@H](OC(=O)[C@H](O)[C@@H](NC(=O)c4ccccc4)c4ccccc4)C(C)=C1C3(C)C)[C@]1(OC(C)=O)CO[C@@H]1C[C@@H]2O [Paclitaxel]
Olaparib/AZD2281 = compound: O=C(c1cc(Cc2n[nH]c(=O)c3ccccc23)ccc1F)N1CCN(C(=O)C2CC2)CC1 [Olaparib/AZD2281]
ABT-737 = compound: CN(C)CC[C@H](CSc1ccccc1)Nc1ccc(S(=O)(=O)NC(=O)c2ccc(N3CCN(Cc4ccccc4-c4ccc(Cl)cc4)CC3)cc2)cc1[N+](=O)[O-] [ABT-737]
Ipatasertib/GDC0068 = compound: CC(C)NC[C@@H](C(=O)N1CCN(c2ncnc3c2[C@H](C)C[C@H]3O)CC1)c1ccc(Cl)cc1 [Ipatasertib/GDC0068]
Flavopiridol [1] = compound: T1, CN1CC[C@H](c2c(O)cc(O)c3c(=O)cc(-c4ccccc4Cl)oc23)[C@H](O)C1 [Flavopiridol]
Doxorubicin = compound: COc1cccc2c1C(=O)c1c(O)c3c(c(O)c1C2=O)C[C@@](O)(C(=O)CO)C[C@@H]3O[C@H]1C[C@H](N)[C@H](O)[C@H](C)O1 [Doxorubicin]
Luminespib/NVP-AUY922 = compound: CCNC(=O)c1noc(-c2cc(C(C)C)c(O)cc2O)c1-c1ccc(CN2CCOCC2)cc1 [Luminespib/NVP-AUY922]
LEE011/Ribociclib = compound: CN(C)C(=O)c1cc2cnc(Nc3ccc(N4CCNCC4)cn3)nc2n1C1CCCC1 [LEE011/Ribociclib]; assay: GR value, 72 h; higher = faster growth (1 = untreated, <0 = killing);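 also: breast cancer and non-malignant breast epithelial lines, nine half-log doses, viable cells counted by Hoechst and LIVE/DEAD dye imaging versus time-zero plates and DMSO controls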
[2] = compound: CCc1cnn2c(NCc3ccc[n+]([O-])c3)cc(N3CCCC[C@H]3CCO)nc12; assay: as above
[3] = compound: CC(=O)c1c(C)c2cnc(Nc3ccc(N4CCNCC4)cn3)nc2n(C2CCCC2)c1=O; assay: as above
THZ531 = compound: CN(C)C/C=C/C(=O)Nc1ccc(C(=O)N2CCC[C@@H](Nc3ncc(Cl)c(-c4c[nH]c5ccccc45)n3)C2)cc1 [THZ531]; assay: as above
Flavopiridol [4] = compound: T1, Flavopiridol; assay: as above
YKL-5-124 = compound: C=CC(=O)Nc1ccc(C(=O)Nc2[nH]nc3c2CN(C(=O)N[C@H](CN(C)C)c2ccccc2)C3(C)C)cc1 [YKL-5-124]; assay: as above
BSJ-03-123 = compound: CC(=O)c1c(C)c2cnc(Nc3ccc(N4CCN(CCOCCOCCOCCNC(=O)COc5cccc6c5C(=O)N(C5CCC(=O)NC5=O)C6=O)CC4)cn3)nc2n(C2CCCC2)c1=O [BSJ-03-123]; assay: as above
[5] = compound: CCN1CCN(Cc2ccc(Nc3ncc(F)c(-c4cc(F)c5nc(C)n(C(C)C)c5c4)n3)nc2)CC1; assay: as above
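For GR50, 72 h in this document: breast cancer and non-malignant breast epithelial cell lines, Deep Dye Drop or Dye Drop imaging, nine half-log doses, GR normalized to time-zero plates and DMSO-only controls.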

## PDX1258
Taselisib/GDC0032
  GR50, 72 h: 0.996 µM
BSJ-01-175
  GR50, 72 h: 0.00362 µM
Paclitaxel
  GR50, 72 h: 0.00215 µM
Olaparib/AZD2281
  GR50, 72 h: > 10 µM
ABT-737
  GR50, 72 h: > 10 µM
Ipatasertib/GDC0068
  GR50, 72 h: 4.37 µM
Flavopiridol [1]
  GR50, 72 h: 0.0943 µM
Doxorubicin
  GR50, 72 h: 0.00914 µM
Luminespib/NVP-AUY922
  GR50, 72 h: 0.0101 µM
LEE011/Ribociclib; 0.001 µM
  GR value: 1.11 GR
LEE011/Ribociclib; 0.003162 µM
  GR value: 1.12 GR
LEE011/Ribociclib; 0.01 µM
  GR value: 0.914 GR
LEE011/Ribociclib; 0.03162 µM
  GR value: 1.18 GR
LEE011/Ribociclib; 0.1 µM
  GR value: 1.19 GR
LEE011/Ribociclib; 0.3162 µM
  GR value: 1.11 GR
LEE011/Ribociclib; 1 µM
  GR value: 0.93 GR
LEE011/Ribociclib; 3.162 µM
  GR value: 1.14 GR
LEE011/Ribociclib; 10 µM
  GR value: 1.02 GR
[2]; 0.0001 µM
  GR value: 1.05 GR
[2]; 0.0003162 µM
  GR value: 1.08 GR
[2]; 0.001 µM
  GR value: 1.13 GR
[2]; 0.003162 µM
  GR value: 1.08 GR
[2]; 0.01 µM
  GR value: 0.655 GR
[2]; 0.03162 µM
  GR value: -0.491 GR
[2]; 0.1 µM
  GR value: -0.587 GR
[2]; 0.3162 µM
  GR value: -0.579 GR
[2]; 1 µM
  GR value: -0.628 GR
[3]; 0.0003162 µM
  GR value: 1.07 GR
[3]; 0.001 µM
  GR value: 1.08 GR
[3]; 0.003162 µM
  GR value: 1.11 GR
[3]; 0.01 µM
  GR value: 1.12 GR
[3]; 0.03162 µM
  GR value: 1.1 GR
[3]; 0.1 µM
  GR value: 1.05 GR
[3]; 0.3162 µM
  GR value: 1.09 GR
[3]; 1 µM
  GR value: 1.09 GR
[3]; 3.162 µM
  GR value: 0.993 GR
THZ531; 0.0001 µM
  GR value: 0.889 GR
THZ531; 0.0003162 µM
  GR value: 1.04 GR
THZ531; 0.001 µM
  GR value: 0.96 GR
THZ531; 0.003162 µM
  GR value: 1.07 GR
THZ531; 0.01 µM
  GR value: 1.07 GR
THZ531; 0.03162 µM
  GR value: 0.765 GR
THZ531; 0.1 µM
  GR value: -0.303 GR
THZ531; 0.3162 µM
  GR value: -0.601 GR
THZ531; 1 µM
  GR value: -0.509 GR
Flavopiridol [4]; 0.0001 µM
  GR value: 1.03 GR
Flavopiridol [4]; 0.0003162 µM
  GR value: 0.973 GR
Flavopiridol [4]; 0.001 µM
  GR value: 1.02 GR
Flavopiridol [4]; 0.003162 µM
  GR value: 1.07 GR
Flavopiridol [4]; 0.01 µM
  GR value: 1.18 GR
Flavopiridol [4]; 0.03162 µM
  GR value: 0.831 GR
Flavopiridol [4]; 0.1 µM
  GR value: 0.5 GR
Flavopiridol [4]; 0.3162 µM
  GR value: -0.24 GR
Flavopiridol [4]; 1 µM
  GR value: -0.402 GR
YKL-5-124; 0.001 µM
  GR value: 0.686 GR
YKL-5-124; 0.003162 µM
  GR value: 0.363 GR
YKL-5-124; 0.01 µM
  GR value: 0.231 GR
YKL-5-124; 0.03162 µM
  GR value: 0.0382 GR
YKL-5-124; 0.1 µM
  GR value: 0.0596 GR
YKL-5-124; 0.3162 µM
  GR value: -0.0277 GR
YKL-5-124; 1 µM
  GR value: -0.147 GR
YKL-5-124; 3.162 µM
  GR value: -0.294 GR
YKL-5-124; 10 µM
  GR value: -0.519 GR
BSJ-03-123; 0.001 µM
  GR value: 1.13 GR
BSJ-03-123; 0.003162 µM
  GR value: 0.919 GR
BSJ-03-123; 0.01 µM
  GR value: 1.2 GR
BSJ-03-123; 0.03162 µM
  GR value: 1.29 GR
BSJ-03-123; 0.1 µM
  GR value: 1.08 GR
BSJ-03-123; 0.3162 µM
  GR value: 1.02 GR
BSJ-03-123; 1 µM
  GR value: 0.916 GR
BSJ-03-123; 3.162 µM
  GR value: 0.819 GR
BSJ-03-123; 10 µM
  GR value: -0.415 GR
[5]; 0.001 µM
  GR value: 1.06 GR
[5]; 0.003162 µM
  GR value: 1.1 GR
[5]; 0.01 µM
  GR value: 1.03 GR
[5]; 0.03162 µM
  GR value: 0.961 GR
[5]; 0.1 µM
  GR value: 0.911 GR
[5]; 0.3162 µM
  GR value: 0.719 GR
[5]; 1 µM
  GR value: 0.375 GR
[5]; 3.162 µM
  GR value: -0.0697 GR
[5]; 10 µM
  GR value: -0.334 GR
